Data reported in US20080194574A1, “Pyrazine Derivatives As Effective Compounds Against Infectious Diseases” (AXXIMA PHARMACEUTICALS AG, priority 2003, published 2008).

molecular target: T1, viral kinase pUL-97 (Human cytomegalovirus, UniProt P16788); experiment: UL97 kinase assay on Immobilon plate; type: biochemical; details: inhibition of UL 97 kinase activity; class by IC50 / % inhibition at 10 μM or 100 μM; read-out: Activity Class [A, B, C]
T1 construct: The pUL-97 gene was cloned into a baculovirus vector; GST (glutathione S-transferase) (N); made in house; host or cells: Sf9 insect cells, baculovirus
Method: UL97 Kinase-Assay on Immobilon Plate
The effect of pyrazine derivatives of this invention was tested on the activity of the viral kinase pUL-97. This kinase is derived from human cytomegalovirus (HCMV) (M. Marschall et al., Journal of General Virology, 2001, 82, 1439-1450). The pUL-97 gene was cloned into a baculovirus vector in order to produce GST (glutathione S-transferase) fusion protein. Insect cells (Sf9) were infected and GST-UL-97 purified via glutathione affinity columns according to standard procedures.
The pUL-97 kinase reaction was performed as described (M. Marschall et al., Journal of General Virology, 2001, 82, 1439-1450). Briefly, 10 μl Assay buffer (3 μM ATP, 60 μg/ml myelin basic protein (MBP) as substrate), 1.0 μCi γ-[^33P]ATP and 10 μl Basic buffer (20 mM Tris-HCl pH7.5, 0.5 mM MnCl2, 1 mM DTT (Dithiothreitol)) were given to the test tube before adding various concentrations of pyrazine derivatives. The reaction was started by adding 0.2 μl pUL-97 kinase, purified from infected Sf9-insect cells as described above. The total volume was adjusted with Basic buffer to a final volume of 30 μl. The reaction mix was incubated for 1 hr at 30° C. For negative control, 10 μl 0.1M EDTA (Ethylene Diamine tetraacetate) was added to reaction mix before addition of pUL-97 protein kinase. The reaction was stopped by addition of 10 μl 0.1 M EDTA.
Measuring Incorporation of Radioactivity:
The Immobilon plate (Millipore) was rinsed with 50 μl methanol/well. Following addition of 100 μl 0.1 M EDTA, 20 μl of each kinase reaction mix was added to one well of the Immobilon plate. Each well was washed 4× with 250 μl 0.75% phosphoric acid and 1× with 50 μl methanol. After addition of 50 μl scintillation cocktail (Roth, Germany) per well incorporation of radioactivity was measured using a Betareader (Wallac) and enzymatic activity calculated.

T1 sequence (P16788 whole entry): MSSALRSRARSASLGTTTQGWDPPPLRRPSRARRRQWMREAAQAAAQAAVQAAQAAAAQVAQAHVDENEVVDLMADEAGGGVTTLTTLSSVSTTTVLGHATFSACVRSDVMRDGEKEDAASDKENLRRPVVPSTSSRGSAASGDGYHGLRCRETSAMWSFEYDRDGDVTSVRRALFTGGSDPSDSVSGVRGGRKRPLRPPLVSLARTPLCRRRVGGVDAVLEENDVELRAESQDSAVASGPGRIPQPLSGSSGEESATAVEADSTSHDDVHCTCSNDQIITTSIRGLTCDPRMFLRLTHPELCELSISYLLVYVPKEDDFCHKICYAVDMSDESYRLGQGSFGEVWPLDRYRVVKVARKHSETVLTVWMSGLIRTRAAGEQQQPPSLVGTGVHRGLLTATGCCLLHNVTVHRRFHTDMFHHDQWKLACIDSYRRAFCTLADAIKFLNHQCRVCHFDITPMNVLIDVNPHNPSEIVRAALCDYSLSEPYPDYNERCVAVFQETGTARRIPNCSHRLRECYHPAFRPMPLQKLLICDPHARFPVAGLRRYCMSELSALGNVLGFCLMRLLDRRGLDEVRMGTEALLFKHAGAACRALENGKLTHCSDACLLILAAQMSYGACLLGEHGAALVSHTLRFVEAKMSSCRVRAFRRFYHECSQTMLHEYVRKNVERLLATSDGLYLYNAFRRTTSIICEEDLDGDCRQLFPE

SMILES	IC50 [µM]
Cc1cccc(-c2cncc(N3CCN(c4ccc(Cl)cc4)CC3)n2)c1 [compound 325, 4-(4-Chloro-phenyl)-6′-m-tolyl-3,4,5,6-tetrahydro-2H-[1,2′]bipyrazinyl]	10 to 100
COc1ccc(N2CCN(c3cncc(-c4ccc(F)cc4)n3)CC2)cc1 [compound 363, 6′-(4-Fluoro-phenyl)-4-(4-methoxy-phenyl)-3,4,5,6-tetrahydro-2H-[1,2′]bipyrazinyl]	1 to 10
CC(=O)c1cccc(-c2cncc(N3CCN(c4ccccn4)CC3)n2)c1 [compound 307, 1-[3-(4-Pyridin-2-yl-3,4,5,6-tetrahydro-2H-[1,2′]bipyrazinyl-6′-yl)-phenyl]-ethanone]	1 to 10
Cc1ccc(N2CCN(c3cncc(-c4ccc(F)c(Cl)c4)n3)CC2)c(C)c1 [compound 281, 6′-(3-Chloro-4-fluoro-phenyl)-4-(2,4-dimethyl-phenyl)-3,4,5,6-tetrahydro-2H-[1,2′]bipyrazinyl]	10 to 100
CC(=O)c1cccc(-c2cncc(N3CCN(c4ccc(F)cc4F)CC3)n2)c1 [compound 273, 1-{3-[4-(2,4-Difluoro-phenyl)-3,4,5,6-tetrahydro-2H-[1,2′]bipyrazinyl-6′-yl]-phenyl}-ethanone]	10 to 100
COc1cccc(N2CCN(c3cncc(-c4cccc(C(C)=O)c4)n3)CC2)c1 [compound 368, 1-{3-[4-(3-Methoxy-phenyl)-3,4,5,6-tetrahydro-2H-[1,2′]bipyrazinyl-6′-yl]-phenyl}-ethanone]	1 to 10
Fc1ccc(-c2cncc(N3CCN(c4ccc(Cl)c(Cl)c4)CC3)n2)cc1 [compound 370]	10 to 100
CN(C)c1ccc(-c2cncc(N3CCN(c4ccc(Cl)cc4)CC3)n2)cc1 [compound 340, {4-[4-(4-Chloro-phenyl)-3,4,5,6-tetrahydro-2H-[1,2′]bipyrazinyl-6′-yl]-phenyl}-dimethyl-amine]	10 to 100
COc1ccc(OC)c(-c2cncc(N3CCN(c4ccc(F)cc4)CC3)n2)c1 [compound 234, 6′-(2,5-Dimethoxy-phenyl)-4-(4-fluoro-phenyl)-3,4,5,6-tetrahydro-2H-[1,2′]bipyrazinyl]	10 to 100
OCc1ccc(-c2cncc(N3CCN(c4ccc(F)cc4)CC3)n2)cc1 [compound 269, {4-[4-(4-Fluoro-phenyl)-3,4,5,6-tetrahydro-2H-[1,2′]bipyrazinyl-6′-yl]-phenyl}-methanol]	1 to 10
Fc1ccccc1N1CCN(c2cncc(-c3ccc(C(F)(F)F)cc3)n2)CC1 [compound 197, 4-(2-Fluoro-phenyl)-6′-(4-trifluoromethyl-phenyl)-3,4,5,6-tetrahydro-2H-[1,2′]bipyrazinyl]	1 to 10
FC(F)(F)c1cccc(N2CCN(c3cncc(-c4ccc5ccccc5c4)n3)CC2)c1 [compound 252, 6′-Naphthalen-2-yl-4-(3-trifluoromethyl-phenyl)-3,4,5,6-tetrahydro-2H-[1,2′]bipyrazinyl]	10 to 100
FC(F)(F)c1ccc(N2CCN(c3cncc(-c4ccoc4)n3)CC2)cc1 [compound 353, 6′-Furan-3-yl-4-(4-trifluoromethyl-phenyl)-3,4,5,6-tetrahydro-2H-[1,2′]bipyrazinyl]	10 to 100
COc1ccc(N2CCN(c3cncc(-c4cc5ccccc5s4)n3)CC2)cc1 [compound 292, 6′-Benzo[b]thiophen-2-yl-4-(4-methoxy-phenyl)-3,4,5,6-tetrahydro-2H-[1,2′]bipyrazinyl]	1 to 10
COc1cccc(N2CCN(c3cncc(-c4ccc(C(F)(F)F)cc4)n3)CC2)c1 [compound 356, 4-(3-Methoxy-phenyl)-6′-(4-trifluoromethyl-phenyl)-3,4,5,6-tetrahydro-2H-[1,2′]bipyrazinyl]	1 to 10
CCOc1ccc(-c2cncc(N3CCN(c4ccc(C)cc4)CC3)n2)cc1 [compound 266, 6′-(4-Ethoxy-phenyl)-4-p-tolyl-3,4,5,6-tetrahydro-2H-[1,2′]bipyrazinyl]	10 to 100
Fc1ccccc1N1CCN(c2cncc(-c3cccc4ccccc34)n2)CC1 [compound 249, 4-(2-Fluoro-phenyl)-6′-naphthalen-1-yl-3,4,5,6-tetrahydro-2H-[1,2′]bipyrazinyl]	10 to 100
Clc1ccc(N2CCN(c3cncc(-c4ccoc4)n3)CC2)cc1 [compound 349, 4-(4-Chloro-phenyl)-6′-furan-3-yl-3,4,5,6-tetrahydro-2H-[1,2′]bipyrazinyl]	10 to 100
Cc1ccc(-c2cncc(N3CCN(c4ccncc4)CC3)n2)cc1 [compound 220, 4-Pyridin-4-yl-6′-p-tolyl-3,4,5,6-tetrahydro-2H-[1,2′]bipyrazinyl]	1 to 10
CC(=O)c1ccc(N2CCN(c3cncc(-c4ccccc4Oc4ccccc4)n3)CC2)cc1 [compound 215, 1-{4-[6′-(2-Phenoxy-phenyl)-2,3,5,6-tetrahydro-[1,2′]bipyrazinyl-4-yl]-phenyl}-ethanone]	10 to 100
c1ccc2c(-c3cncc(N4CCN(c5cnccn5)CC4)n3)cccc2c1 [compound 331, 6-Naphthalen-1-yl-2′,3′,5′,6′-tetrahydro-[2,1′;4′,2″]terpyrazine]	10 to 100
CCOc1ccccc1-c1cncc(N2CCN(c3ccc(C(C)=O)cc3)CC2)n1 [compound 212, 1-{4-[6′-(2-Ethoxy-phenyl)-2,3,5,6-tetrahydro-[1,2′]bipyrazinyl-4-yl]-phenyl}-ethanone]	10 to 100
COc1ccccc1N1CCN(c2cncc(-c3ccccc3C(C)=O)n2)CC1 [compound 240, 1-{2-[4-(2-Methoxy-phenyl)-3,4,5,6-tetrahydro-2H-[1,2′]bipyrazinyl-6′-yl]-phenyl}-ethanone]	10 to 100

same assay, conditions: inhibition of UL 97 kinase activity; class by IC50 / % inhibition at 10 or 100 μM; read-out: Activity Class [A, B, C]

SMILES	IC50 [µM]
COc1cccc(-c2cncc(N3CCN(c4ccccc4OC)CC3)n2)c1 [compound 105, 4-(2-Methoxy-phenyl)-6′-(3-methoxy-phenyl)-3,4,5,6-tetrahydro-2H-[1,2′]bipyrazinyl]	1 to 10
Cc1ccc(N2CCN(c3cncc(-c4ccc(C(F)(F)F)cc4)n3)CC2)cc1 [compound 178, 4-p-Tolyl-6′-(4-trifluoromethyl-phenyl)-3,4,5,6-tetrahydro-2H-[1,2′]bipyrazinyl]	1 to 10
CC(C)(C)c1ccc(-c2cncc(N3CCN(c4ccccc4)CC3)n2)cc1 [compound 95, 6′-(4-tert-Butyl-phenyl)-4-phenyl-3,4,5,6-tetrahydro-2H-[1,2′]bipyrazinyl]	10 to 100
COc1cccc(-c2cncc(N3CCN(c4ccncc4)CC3)n2)c1 [compound 78, 6′-(3-Methoxy-phenyl)-4-pyridin-4-yl-3,4,5,6-tetrahydro-2H-[1,2′]bipyrazinyl]	1 to 10
COc1ccccc1N1CCN(c2cncc(-c3ccoc3)n2)CC1 [compound 90, 6′-Furan-3-yl-4-(2-methoxy-phenyl)-3,4,5,6-tetrahydro-2H-[1,2′]bipyrazinyl]	1 to 10
CC(=O)c1ccc(N2CCN(c3cncc(-c4ccc(C)cc4)n3)CC2)cc1 [compound 148, 1-[4-(6′-p-Tolyl-2,3,5,6-tetrahydro-[1,2′]bipyrazinyl-4-yl)-phenyl]-ethanone]	1 to 10
COc1ccc(N2CCN(c3cncc(-c4ccc(C(F)(F)F)cc4)n3)CC2)cc1OC [compound 172, 4-(3,4-Dimethoxy-phenyl)-6′-(4-trifluoromethyl-phenyl)-3,4,5,6-tetrahydro-2H-[1,2′]bipyrazinyl]	1 to 10
O=C(NCCO)c1cccc(-c2cncc(N3CCN(c4ccncc4)CC3)n2)c1 [compound 39, N-(2-Hydroxy-ethyl)-3-(4-pyridin-4-yl-3,4,5,6-tetrahydro-2H-[1,2′]bipyrazinyl-6′-yl)-benzamide]	10 to 100
COc1ccc2cc(-c3cncc(N4CCN(c5ccccc5OC)CC4)n3)ccc2c1 [compound 187, 6′-(6-Methoxy-naphthalen-2-yl)-4-(2-methoxy-phenyl)-3,4,5,6-tetrahydro-2H-[1,2′]bipyrazinyl]	10 to 100
CC(=O)c1cccc(-c2cncc(N3CCN(c4ccncc4)CC3)n2)c1 [compound 132, 1-[3-(4-Pyridin-4-yl-3,4,5,6-tetrahydro-2H-[1,2′]bipyrazinyl-6′-yl)-phenyl]-ethanone]	1 to 10
CN(C)c1ccc(-c2cncc(N3CCN(c4ccccc4)CC3)n2)cc1 [compound 190, Dimethyl-[4-(4-phenyl-3,4,5,6-tetrahydro-2H-[1,2′]bipyrazinyl-6′-yl)-phenyl]-amine]	1 to 10
Cc1cc(C)cc(-c2cncc(N3CCN(c4ccc(F)cc4)CC3)n2)c1 [compound 179, 6′-(3,5-Dimethyl-phenyl)-4-(4-fluoro-phenyl)-3,4,5,6-tetrahydro-2H-[1,2′]bipyrazinyl]	10 to 100
